Laboratory results as given in article PMC4073285, “Exploring the molecular mechanisms of electron shuttling across the microbe/metal space” (Frontiers in Microbiology, 2014).

Experiments:
MtrC [1] = biological target: T1, MtrC (Shewanella oneidensis, UniProt Q8EG34); test: 1H NMR titration (heme methyl shifts); assay type: binding; settings: oxidized protein; 20 mM potassium phosphate pH 7.6, 100 mM KCl, 2H2O, 25 °C
T1 construct: recombinant soluble decaheme cytochrome from E. coli JM109(DE3) periplasm with pEC86; stop codon after the gene removes V5 and His6 tags; C-terminus encoded by primer HTKVKM
T1 sequence (Q8EG34 entry or part of it): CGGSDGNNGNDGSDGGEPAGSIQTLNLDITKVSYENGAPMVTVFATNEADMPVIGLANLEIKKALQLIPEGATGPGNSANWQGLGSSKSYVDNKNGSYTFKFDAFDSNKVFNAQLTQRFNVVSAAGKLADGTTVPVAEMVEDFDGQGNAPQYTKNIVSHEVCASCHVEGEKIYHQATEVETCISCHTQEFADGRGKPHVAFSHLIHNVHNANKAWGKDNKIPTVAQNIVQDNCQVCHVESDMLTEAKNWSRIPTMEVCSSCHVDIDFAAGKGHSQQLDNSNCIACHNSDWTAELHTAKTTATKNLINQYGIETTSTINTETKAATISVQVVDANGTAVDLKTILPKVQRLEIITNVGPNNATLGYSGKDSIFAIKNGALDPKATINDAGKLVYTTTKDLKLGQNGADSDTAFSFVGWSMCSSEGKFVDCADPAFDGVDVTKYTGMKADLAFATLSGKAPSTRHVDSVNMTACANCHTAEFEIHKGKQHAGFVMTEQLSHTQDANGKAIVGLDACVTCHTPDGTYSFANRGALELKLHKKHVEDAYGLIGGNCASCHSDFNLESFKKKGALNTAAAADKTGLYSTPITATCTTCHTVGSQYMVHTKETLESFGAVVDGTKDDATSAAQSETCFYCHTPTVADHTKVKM

UndA = biological target: T2, UndA (Shewanella sp. HRCR_06, UniProt F8UWD6); test: 1H NMR titration (heme methyl shifts); assay type: binding; settings: oxidized protein; 20 mM potassium phosphate pH 7.6, 100 mM KCl, 2H2O, 25 °C
T2 construct: recombinant soluble undecaheme cytochrome from E. coli JM109(DE3) periplasm with pEC86; stop codon after the gene removes V5 and His6 tags; C-terminus encoded by primer GVDKVHPVKY
T2 sequence (F8UWD6 entry or part of it): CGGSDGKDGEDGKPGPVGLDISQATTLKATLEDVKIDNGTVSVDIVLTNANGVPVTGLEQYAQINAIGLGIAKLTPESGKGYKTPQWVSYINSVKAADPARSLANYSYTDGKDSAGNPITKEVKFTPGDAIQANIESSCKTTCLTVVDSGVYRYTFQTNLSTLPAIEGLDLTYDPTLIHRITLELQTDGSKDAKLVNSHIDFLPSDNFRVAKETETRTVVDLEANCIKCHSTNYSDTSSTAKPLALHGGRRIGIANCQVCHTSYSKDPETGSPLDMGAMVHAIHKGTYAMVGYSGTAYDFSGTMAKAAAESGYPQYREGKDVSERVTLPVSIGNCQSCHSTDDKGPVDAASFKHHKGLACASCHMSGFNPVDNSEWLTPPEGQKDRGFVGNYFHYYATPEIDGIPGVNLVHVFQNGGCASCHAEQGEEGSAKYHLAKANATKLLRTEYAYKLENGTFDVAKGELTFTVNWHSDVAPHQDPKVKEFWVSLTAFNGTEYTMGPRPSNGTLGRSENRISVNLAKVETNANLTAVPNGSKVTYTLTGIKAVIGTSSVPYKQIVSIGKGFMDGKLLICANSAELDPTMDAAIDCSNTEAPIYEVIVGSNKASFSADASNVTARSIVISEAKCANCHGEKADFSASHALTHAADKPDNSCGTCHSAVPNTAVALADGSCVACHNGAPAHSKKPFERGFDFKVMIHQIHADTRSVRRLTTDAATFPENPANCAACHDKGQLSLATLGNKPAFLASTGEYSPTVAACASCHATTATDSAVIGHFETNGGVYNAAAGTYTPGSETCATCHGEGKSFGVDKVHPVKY

OmcA [2] = biological target: T3, OmcA (Shewanella oneidensis, UniProt Q8EG33); test: 1H NMR titration (heme methyl shifts); assay type: binding; settings: oxidized protein; 20 mM potassium phosphate pH 7.6, 100 mM KCl, 2H2O, 25 °C
T3 construct: recombinant soluble decaheme cytochrome expressed in S. oneidensis MR-1 from pBAD202/D-TOPO; stop codon after the gene removes V5 and His6 tags; C-terminus encoded by primer ...AIDGSTR N not altered (ends MEAHGN)
T3 sequence (Q8EG33 entry or part of it): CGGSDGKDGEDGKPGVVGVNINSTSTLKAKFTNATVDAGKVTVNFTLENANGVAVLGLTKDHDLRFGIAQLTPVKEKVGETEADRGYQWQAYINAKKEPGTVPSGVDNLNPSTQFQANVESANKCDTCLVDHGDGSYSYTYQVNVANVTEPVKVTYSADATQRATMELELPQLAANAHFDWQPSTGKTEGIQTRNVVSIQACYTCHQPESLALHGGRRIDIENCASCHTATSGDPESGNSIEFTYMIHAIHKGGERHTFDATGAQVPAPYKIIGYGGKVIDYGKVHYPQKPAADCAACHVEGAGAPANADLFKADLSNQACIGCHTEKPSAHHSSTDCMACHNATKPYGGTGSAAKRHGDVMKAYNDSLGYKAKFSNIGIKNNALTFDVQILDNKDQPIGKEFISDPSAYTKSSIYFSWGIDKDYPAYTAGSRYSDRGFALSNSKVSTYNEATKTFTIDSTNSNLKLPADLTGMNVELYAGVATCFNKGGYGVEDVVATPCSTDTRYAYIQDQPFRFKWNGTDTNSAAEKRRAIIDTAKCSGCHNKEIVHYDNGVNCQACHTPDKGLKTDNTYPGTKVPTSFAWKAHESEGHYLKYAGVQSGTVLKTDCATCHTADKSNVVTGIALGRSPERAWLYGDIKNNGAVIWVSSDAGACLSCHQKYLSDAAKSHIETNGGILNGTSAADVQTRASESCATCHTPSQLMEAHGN

MtrF = biological target: T4, MtrF (Shewanella oneidensis, UniProt Q8EG32); test: stopped-flow oxidation of reduced cytochrome at […] nm; assay type: biochemical; settings: electron acceptor; 11 μM PMS, 0.31 μM protein, pH 7.6, 25 °C, anaerobic
T4 construct: recombinant soluble decaheme cytochrome expressed in S. oneidensis MR-1; stop codon after the gene removes V5 and His6 tags
T4 sequence (Q8EG32 24-639): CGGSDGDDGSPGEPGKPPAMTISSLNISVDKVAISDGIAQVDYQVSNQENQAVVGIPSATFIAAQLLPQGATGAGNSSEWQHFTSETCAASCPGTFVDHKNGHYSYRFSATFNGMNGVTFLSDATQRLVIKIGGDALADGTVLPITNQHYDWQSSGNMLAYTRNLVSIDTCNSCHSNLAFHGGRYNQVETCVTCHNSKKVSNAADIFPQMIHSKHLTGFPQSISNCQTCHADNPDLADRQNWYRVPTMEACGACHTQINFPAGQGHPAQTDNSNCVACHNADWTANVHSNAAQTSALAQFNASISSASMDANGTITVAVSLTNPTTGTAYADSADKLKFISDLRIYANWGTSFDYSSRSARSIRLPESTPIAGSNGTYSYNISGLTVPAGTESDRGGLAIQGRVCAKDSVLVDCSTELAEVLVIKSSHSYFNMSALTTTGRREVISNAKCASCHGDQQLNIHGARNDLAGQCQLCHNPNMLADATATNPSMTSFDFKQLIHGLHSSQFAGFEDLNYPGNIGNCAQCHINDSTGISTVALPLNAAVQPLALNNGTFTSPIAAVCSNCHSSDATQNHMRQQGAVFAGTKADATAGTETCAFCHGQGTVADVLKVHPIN

MtrC [3] = biological target: T1, MtrC; test: […] NMR titration; assay type: binding; settings: read-out: βd
OmcA [4] = biological target: T3, OmcA; test: […] NMR titration; assay type: binding; settings: read-out: βd

Structure (SMILES): O=C1c2ccc(S(=O)(=O)O)cc2C(=O)c2ccc(S(=O)(=O)O)cc21 [AQDS, Anthraquinone 2,6-disulfonate]
- 1H NMR titration (heme methyl shifts) (MtrC [1]): the addition of AQDS promoted noticeable spectral changes in OmcA, MtrC, and UndA
- 1H NMR titration (heme methyl shifts) (UndA): the addition of AQDS promoted noticeable spectral changes in OmcA, MtrC, and UndA
- 1H NMR titration (heme methyl shifts) (OmcA [2]): the addition of AQDS promoted noticeable spectral changes in OmcA, MtrC, and UndA

Structure (SMILES): Cc1cc2nc3c(=O)[nH]c(=O)nc-3n(C[C@H](O)[C@H](O)[C@H](O)CO)c2cc1C [RF, Riboflavin]
- 1H NMR titration (heme methyl shifts) (MtrC [1]): only promoted significant changes in the heme signals of OmcA and MtrC
- 1H NMR titration (heme methyl shifts) (OmcA [2]): RF, FMN, and PMS, only promoted significant changes in the heme signals of OmcA

Structure (SMILES): C[n+]1c2ccccc2nc2ccccc21 [PMS, Phenazine methosulfate]
- 1H NMR titration (heme methyl shifts) (MtrC [1]): only promoted significant changes in the heme signals of OmcA and MtrC
- stopped-flow oxidation of reduced cytochrome at 552 nm (MtrF): PMS oxidized all the cytochromes at a rate too fast to be measured
- 1H NMR titration (heme methyl shifts) (OmcA [2]): RF, FMN, and PMS, only promoted significant changes in the heme signals of OmcA

Structure (SMILES): Cc1cc2nc3c(=O)[nH]c(=O)nc-3n(C[C@H](O)[C@H](O)[C@H](O)COP(=O)(O)O)c2cc1C [FMN, Flavin mononucleotide]
- Kd (MtrC [3]): 255 µM
- Kd (OmcA [4]): 29 µM
